Laboratory results taken from PMC2656996, “Functional cell permeable motifs within medically relevant proteins” (Journal of Biotechnology, 2007).
Non-standard residues stand in square brackets, D forms with d. Residues, ends and D or L forms follow the SMILES beside them. N(NBD)Gly = O=C(O)CNc1ccc([N+](=O)[O-])c2nonc12

Tests used:
RAW 264.7 cells [1] = assay: Internalisation of NBD-labelled peptides, flow cytometry with dithionite quench; type: cell-based, murine; conditions: increasing concentrations of NBD-labelled peptide, 2 h at 37 °C, DMEM 10% FCS, FACS, average of three independent experiments
Protocol: (§1) HeLa or RAW 264.7 cells were cultured at 37 °C, 10% CO2, in Dulbecco's modified Eagle's medium (DMEM) (Invitrogen), containing 10% foetal calf serum (FCS, Harlan), 100 U/ml penicillin and 100 μg/ml streptomycin. Quantification of internalisation of NBD-labelled peptides was carried out according to the procedure described by [Drin et al. (2001)]. Briefly, cells were seeded in six-well plates (5 × 10^5 cells/well) and treated with 0–160 μM of peptide for 2 h at 37 °C. Cells were washed twice in PBS, harvested using a solution of Versene (1:500) (Invitrogen) and re-suspended in 0.5 ml (final volume) of ice-cold PBS. Cells were analysed by flow cytometry using a Becton Dickinson FACS Scan instrument and the geometric mean of fluorescence intensity was considered to represent the amount of cell-associated peptide. Following flow cytometry, 5 μl of freshly prepared dithionite stock solution (1 M Na2S2O4 in 1 M Tris–HCl (pH 10)) was added to cells maintained at 4 °C for 5 min and analysed again with flow cytometry to measure residual fluorescence. Fluorescence from cells treated with dithionite only was subtracted from the fluorescence of cell-associated or internalised peptides to infer background values.

HeLa cells = assay: as above; type: cell-based, human; conditions: NBD-labelled peptide 10, 40 and 160 μM, 2 h at 37 °C, DMEM 10% FCS, FACS geometric mean fluorescence, dithionite-only background subtracted, average of three independent experiments
Protocol: as §1

RAW 264.7 cells [2] = assay: Cell viability, CellTiter-Glo Luminescent Assay; type: cell-based, murine; conditions: RAW 264.7, 10, 40 and 160 μM peptide, incubation 2, 4, 8 and 18 h
Description: CellTiter-Glo Luminescent Assay (Promega) was utilised to determine viability of RAW 264.7 cells following treatment with peptides, according to the manufacturer's instructions.

CSCC[C@H](NC(=O)[C@H](CCCCN)NC(=O)CNc1ccc([N+](=O)[O-])c2nonc12)C(=O)N[C@@H](C)C(=O)N[C@@H](CC(=O)O)C(=O)N[C@@H](Cc1c[nH]c2ccccc12)C(=O)N[C@@H](Cc1ccccc1)C(=O)N[C@@H](CCCNC(=N)N)C(=O)N[C@@H](CCC(N)=O)C(=O)N[C@H](C(=O)N[C@@H](CC(C)C)C(=O)N[C@@H](CC(C)C)C(=O)N[C@@H](C)C(=O)N[C@@H](C)C(=O)N1CCC[C@H]1C(=O)N[C@@H](C)C(=O)N[C@@H](C)C(=O)N[C@@H](C)C(=O)N1CCC[C@H]1C(=O)N[C@@H](CC(N)=O)C(=O)N[C@@H](CO)C(=O)N1CCC[C@H]1C(=O)N[C@@H](CCC(=O)O)C(=O)N[C@@H](CO)C(=O)N[C@H](C(N)=O)[C@@H](C)O)[C@@H](C)O [NBD-TIRAP^Ala] (H-[N(NBD)Gly]KMADWFRQTLLAAPAAAPNSPEST-NH2)
Internalised peptide, mean cell fluorescence after sodium dithionite quencher (RAW 264.7 cells [1]): substantially less fluorescent | Internalised peptide, mean cell fluorescence after sodium dithionite quencher (HeLa cells): substantially less fluorescent

C[C@H](NC(=O)[C@H](C)NC(=O)[C@H](CCC(N)=O)NC(=O)[C@H](C)NC(=O)[C@H](C)NC(=O)[C@H](CCCCN)NC(=O)[C@H](CCCCN)NC(=O)[C@H](CCCNC(=N)N)NC(=O)CNc1ccc([N+](=O)[O-])c2nonc12)C(=O)N[C@@H](C)C(=O)N1CCC[C@H]1C(=O)N1CCC[C@H]1C(=O)N[C@@H](CCC(N)=O)C(N)=O [TAT^Ala, reference compound] (H-[N(NBD)Gly]RKKAAQAAAPPQ-NH2)
Internalised peptide, mean cell fluorescence after sodium dithionite quencher (HeLa cells): very little fluorescence

CC[C@H](C)[C@H](NC(=O)[C@H](C)NC(=O)CNC(=O)CNC(=O)[C@@H]1CCCN1C(=O)[C@@H](NC(=O)[C@H](C)NC(=O)[C@H](CC(=O)O)NC(=O)[C@H](CCCNC(=N)N)NC(=O)[C@H](CC(C)C)NC(=O)[C@H](CCC(N)=O)NC(=O)[C@H](CC(C)C)NC(=O)[C@@H](NC(=O)[C@H](CO)NC(=O)[C@H](CCC(=O)O)NC(=O)[C@@H]1CCCN1C(=O)[C@H](CO)NC(=O)[C@H](CC(N)=O)NC(=O)[C@@H]1CCCN1C(=O)[C@H](CCCNC(=N)N)NC(=O)[C@H](CCCCN)NC(=O)[C@H](CCCCN)NC(=O)[C@@H]1CCCN1C(=O)[C@H](CCCCN)NC(=O)[C@H](CCCCN)NC(=O)[C@H](CC(C)C)NC(=O)[C@H](CC(C)C)NC(=O)[C@@H](NC(=O)[C@H](CCC(N)=O)NC(=O)[C@H](CCCNC(=N)N)NC(=O)[C@H](Cc1ccccc1)NC(=O)[C@H](Cc1c[nH]c2ccccc12)NC(=O)[C@H](CC(=O)O)NC(=O)[C@H](C)NC(=O)[C@H](CCSC)NC(=O)[C@H](CCCCN)NC(=O)CN)[C@@H](C)O)[C@@H](C)O)[C@@H](C)O)C(=O)N[C@H](C(=O)N[C@@H](CO)C(N)=O)C(C)C [TBX2] (H-GKMADWFRQTLLKKPKKRPNSPESTLQLRDATPGGAIVS-NH2)
Cellular viability (RAW 264.7 cells [2]): no significant reduction in cellular viability

CSCC[C@H](NC(=O)[C@H](CCCCN)NC(=O)CNc1ccc([N+](=O)[O-])c2nonc12)C(=O)N[C@@H](C)C(=O)N[C@@H](CC(=O)O)C(=O)N[C@@H](Cc1c[nH]c2ccccc12)C(=O)N[C@@H](Cc1ccccc1)C(=O)N[C@@H](CCCNC(=N)N)C(=O)N[C@@H](CCC(N)=O)C(=O)N[C@H](C(=O)N[C@@H](CC(C)C)C(=O)N[C@@H](CC(C)C)C(=O)N[C@@H](CCCCN)C(=O)N[C@@H](CCCCN)C(=O)N1CCC[C@H]1C(=O)N[C@@H](CCCCN)C(=O)N[C@@H](CCCCN)C(=O)N[C@@H](CCCNC(=N)N)C(=O)N1CCC[C@H]1C(=O)N[C@@H](CC(N)=O)C(=O)N[C@@H](CO)C(=O)N1CCC[C@H]1C(=O)N[C@@H](CCC(=O)O)C(=O)N[C@@H](CO)C(=O)N[C@H](C(N)=O)[C@@H](C)O)[C@@H](C)O [TIRAP] (H-[N(NBD)Gly]KMADWFRQTLLKKPKKRPNSPEST-NH2)
Internalised peptide, mean cell fluorescence after sodium dithionite quencher (RAW 264.7 cells [1]): cell permeable properties | Internalised peptide, mean cell fluorescence after sodium dithionite quencher (HeLa cells): cell permeable properties
